Measured values as given in ChEMBL document CHEMBL4038272, “Synthesis and biological evaluation of novel podophyllotoxin-NSAIDs conjugates as multifunctional anti-MDR agents against resistant human hepatocellular carcinoma Bel-7402/5-FU cells” (Eur J Med Chem, 2017).
Activity calls are given as the source filed them. The rule behind the calls is not given here.

How the values were obtained:
Bel-7402 = experiment: Antiproliferative activity against human Bel7402 cells after 72 hrs by CCK-8 assay; format: functional, cell-based; conditions: Bel-7402, 72 h
Bel7402/5-FU [1] = experiment: Antiproliferative activity against human Bel7402/5-FU cells after 72 hrs by CCK-8 assay; format: functional, cell-based
L02 = experiment: Antiproliferative activity against human LO2 cells after 72 hrs by CCK-8 assay; format: cell-based; conditions: L02, 72 h
[2] = Resistant factor, ratio of IC50 for human Bel7402/5-FU cells to IC50 for human Bel7402 cells; format: functional
Bel7402/5-FU [3] = experiment: Cell cycle arrest in human Bel7402/5-FU cells assessed as accumulation at G1 phase at 10 uM after 48 hrs by propidium iodide staining based flow cytometry (reference value: 52.21%); format: functional
Bel7402/5-FU [4] = experiment: Cell cycle arrest in human Bel7402/5-FU cells assessed as accumulation at S phase at 10 uM after 48 hrs by propidium iodide staining based flow cytometry (reference value: 12.62%); format: functional
Bel7402/5-FU [5] = experiment: Cell cycle arrest in human Bel7402/5-FU cells assessed as accumulation at G2 phase at 10 uM after 48 hrs by propidium iodide staining based flow cytometry (reference value: 35.16%); format: functional
Bel7402/5-FU [6] = experiment: Induction of apoptosis in human Bel7402/5-FU cells assessed as reduction in cell number at 10 uM after 24 hrs by Hoechst 33342 staining based fluorescent microscopic method; format: functional
Bel7402/5-FU [7] = experiment: Induction of apoptosis in human Bel7402/5-FU cells assessed as morphological changes at 10 uM after 24 hrs by Hoechst 33342 staining based fluorescent microscopic method; format: functional, cell-based
Bel7402/5-FU [8] = experiment: Induction of apoptosis in human Bel7402/5-FU cells assessed as condensed nuclei at 10 uM after 24 hrs by Hoechst 33342 staining based fluorescent microscopic method; format: functional, cell-based
Bel7402/5-FU [9] = experiment: Induction of apoptosis in human Bel7402/5-FU cells at 10 uM after 24 hrs by Hoechst 33342 staining based fluorescent microscopic method; format: functional, cell-based
Bel7402/5-FU [10] = experiment: Induction of apoptosis in human Bel7402/5-FU cells assessed as live cells at 10 uM after 48 hrs by Annexin V-APC/7-AAD staining based flow cytometry (reference value: 91.08%); format: functional
Bel7402/5-FU [11] = experiment: Induction of apoptosis in human Bel7402/5-FU cells assessed as early apoptotic cells at 10 uM after 48 hrs by Annexin V-APC/7-AAD staining based flow cytometry (reference value: 5.24%); format: functional
Bel7402/5-FU [12] = experiment: Induction of apoptosis in human Bel7402/5-FU cells assessed as late apoptotic cells at 10 uM after 48 hrs by Annexin V-APC/7-AAD staining based flow cytometry (reference value: 3%); format: functional
Bel7402/5-FU [13] = experiment: Induction of apoptosis in human Bel7402/5-FU cells assessed as necrotic cells at 10 uM after 48 hrs by Annexin V-APC/7-AAD staining based flow cytometry (reference value: 0.58%); format: functional
Bel7402/5-FU [14] = experiment: Induction of microtubule disruption in human Bel7402/5-FU cells at 10 uM after 24 to 48 hrs by DAPI staining based immunofluorescence microscopic method; format: functional, cell-based
Bel7402/5-FU [15] = experiment: Reduction in microtubule density in human Bel7402/5-FU cells at 10 uM after 24 to 48 hrs by DAPI staining based immunofluorescence microscopic method; format: functional, cell-based
Bel7402/5-FU [16] = experiment: Antimigratory activity in human Bel7402/5-FU cells at 10 uM after 24 hrs by wound healing assay; format: functional, cell-based
Bel7402/5-FU [17] = experiment: Effect on CDK1 expression in human Bel7402/5-FU cells assessed as ratio of CDK1 to beta-actin level at 10 uM after 48 hrs by Western blot analysis (reference value: 0.33); format: functional
Bel7402/5-FU [18] = experiment: Effect on CDK2 expression in human Bel7402/5-FU cells assessed as ratio of CDK2 to beta-actin level at 10 uM after 48 hrs by Western blot analysis (reference value: 0.43); format: functional
Bel7402/5-FU [19] = experiment: Effect on cyclinA expression in human Bel7402/5-FU cells assessed as ratio of cyclinA to beta-actin level at 10 uM after 48 hrs by Western blot analysis (reference value: 0.39); format: functional
Bel7402/5-FU [20] = experiment: Effect on cyclinB1 expression in human Bel7402/5-FU cells assessed as ratio of cyclinB1 to beta-actin level at 10 uM after 48 hrs by Western blot analysis (reference value: 0.53); format: functional
Bel7402/5-FU [21] = experiment: Induction of apoptosis in human Bel7402/5-FU cells assessed as ratio of cleaved caspase-3 to beta-actin level at 10 uM after 48 hrs by Western blot analysis (reference value: 0.19); format: functional
Bel7402/5-FU [22] = experiment: Induction of apoptosis in human Bel7402/5-FU cells assessed as ratio of cleaved caspase-8 to beta-actin level at 10 uM after 48 hrs by Western blot analysis (reference value: 0.17); format: functional
Bel7402/5-FU [23] = experiment: Induction of apoptosis in human Bel7402/5-FU cells assessed as ratio of cleaved caspase-9 to beta-actin level at 10 uM after 48 hrs by Western blot analysis (reference value: 0.17); format: functional
Bel7402/5-FU [24] = experiment: Induction of apoptosis in human Bel7402/5-FU cells assessed as ratio of cleaved PARP to beta-actin level at 10 uM after 48 hrs by Western blot analysis (reference value: 0.2); format: functional
Bel7402/5-FU [25] = experiment: Effect on VEGFR2 expression in human Bel7402/5-FU cells assessed as ratio of VEGFR2 to beta-actin level at 10 uM after 48 hrs by Western blot analysis (reference value: 0.25); format: functional
Bel7402/5-FU [26] = experiment: Effect on MMP2 expression in human Bel7402/5-FU cells assessed as ratio of MMP2 to beta-actin level at 10 uM after 48 hrs by Western blot analysis (reference value: 0.3); format: functional
Bel7402/5-FU [27] = experiment: Effect on E-cadherin expression in human Bel7402/5-FU cells assessed as ratio of E-cadherin to beta-actin level at 10 uM after 48 hrs by Western blot analysis (reference value: 0.2); format: functional
Bel7402/5-FU [28] = experiment: Effect on COX1 expression in human Bel7402/5-FU cells assessed as ratio of COX1 to beta-actin level at 10 uM after 48 hrs by Western blot analysis (reference value: 0.48); format: functional
Bel7402/5-FU [29] = experiment: Effect on COX2 expression in human Bel7402/5-FU cells assessed as ratio of COX2 to beta-actin level at 10 uM after 48 hrs by Western blot analysis (reference value: 0.36); format: functional
Bel7402/5-FU [30] = experiment: Effect on iNOS expression in human Bel7402/5-FU cells assessed as ratio of iNOS to beta-actin level at 10 uM after 48 hrs by Western blot analysis (reference value: 0.13); format: functional
Bel7402/5-FU [31] = experiment: Effect on P-gp expression in human Bel7402/5-FU cells assessed as ratio of P-gp to beta-actin level at 10 uM after 48 hrs by Western blot analysis (reference value: 0.59); format: functional
Bel7402/5-FU [32] = experiment: Effect on MRP1 expression in human Bel7402/5-FU cells assessed as ratio of MRP1 to beta-actin level at 10 uM after 48 hrs by Western blot analysis (reference value: 0.58); format: functional
[33] = target: Mitogen-activated protein kinase; ERK1/ERK2 (Homo sapiens) (UniProt P27361+P28482); experiment: Effect on ERK1/2 phosphorylation in human Bel7402/5-FU cells assessed as ratio of phosphorylated ERK1/2 to beta-actin level at 10 uM after 48 hrs by Western blot analysis (reference value: 0.59); format: cell-based
Sequence of Mitogen-activated protein kinase; ERK1/ERK2 (Homo sapiens) (P27361 whole entry, looked up): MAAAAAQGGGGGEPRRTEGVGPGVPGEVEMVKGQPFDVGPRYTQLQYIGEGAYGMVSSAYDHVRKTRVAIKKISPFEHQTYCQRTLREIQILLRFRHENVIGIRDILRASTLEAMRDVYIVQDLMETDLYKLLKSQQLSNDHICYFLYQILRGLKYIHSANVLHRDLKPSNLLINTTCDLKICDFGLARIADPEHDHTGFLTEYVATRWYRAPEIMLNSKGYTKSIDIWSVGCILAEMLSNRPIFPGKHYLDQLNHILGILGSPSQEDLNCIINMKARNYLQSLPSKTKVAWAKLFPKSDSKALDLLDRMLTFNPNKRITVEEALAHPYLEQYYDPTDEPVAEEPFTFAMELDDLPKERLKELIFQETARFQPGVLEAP
Sequence of Mitogen-activated protein kinase; ERK1/ERK2 (Homo sapiens) (P28482 whole entry, looked up): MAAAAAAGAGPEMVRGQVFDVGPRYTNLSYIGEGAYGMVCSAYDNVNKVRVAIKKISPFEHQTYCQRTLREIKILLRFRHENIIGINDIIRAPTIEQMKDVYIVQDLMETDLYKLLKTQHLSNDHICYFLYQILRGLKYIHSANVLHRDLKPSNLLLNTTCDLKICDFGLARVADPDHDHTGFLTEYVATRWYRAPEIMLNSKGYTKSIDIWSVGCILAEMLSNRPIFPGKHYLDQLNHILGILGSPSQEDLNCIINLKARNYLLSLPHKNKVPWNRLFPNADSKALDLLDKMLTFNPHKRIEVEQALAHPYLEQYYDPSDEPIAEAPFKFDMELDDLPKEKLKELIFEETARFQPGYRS

[34] = target: Signal transducer and activator of transcription 3 (Homo sapiens) (UniProt P40763); experiment: Effect on STAT3 phosphorylation in human Bel7402/5-FU cells assessed as ratio of phosphorylated STAT3 to beta-actin level at 10 uM after 48 hrs by Western blot analysis (reference value: 0.3); format: cell-based
Sequence of Signal transducer and activator of transcription 3 (Homo sapiens) (P40763 whole entry): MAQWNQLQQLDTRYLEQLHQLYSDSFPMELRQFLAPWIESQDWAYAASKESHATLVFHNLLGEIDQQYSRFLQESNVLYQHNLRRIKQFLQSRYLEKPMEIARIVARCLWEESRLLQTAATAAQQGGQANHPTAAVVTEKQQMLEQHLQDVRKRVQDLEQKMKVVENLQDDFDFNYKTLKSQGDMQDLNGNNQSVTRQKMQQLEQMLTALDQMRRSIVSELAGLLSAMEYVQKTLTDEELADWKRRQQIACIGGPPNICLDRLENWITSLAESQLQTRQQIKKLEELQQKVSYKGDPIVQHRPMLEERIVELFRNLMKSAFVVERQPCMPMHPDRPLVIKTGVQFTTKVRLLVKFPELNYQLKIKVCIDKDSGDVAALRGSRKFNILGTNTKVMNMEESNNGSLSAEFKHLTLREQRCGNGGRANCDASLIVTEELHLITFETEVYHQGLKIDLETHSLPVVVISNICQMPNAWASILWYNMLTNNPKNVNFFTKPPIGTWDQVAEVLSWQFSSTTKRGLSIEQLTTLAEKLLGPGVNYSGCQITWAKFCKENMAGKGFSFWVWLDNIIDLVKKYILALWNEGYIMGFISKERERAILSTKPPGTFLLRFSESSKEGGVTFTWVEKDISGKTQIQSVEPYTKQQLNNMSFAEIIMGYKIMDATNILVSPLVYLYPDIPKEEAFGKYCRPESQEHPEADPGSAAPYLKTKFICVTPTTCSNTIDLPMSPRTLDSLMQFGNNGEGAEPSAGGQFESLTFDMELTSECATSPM

[35] = target: RAC-alpha serine/threonine-protein kinase (Homo sapiens) (UniProt P31749); experiment: Effect on AKT phosphorylation in human Bel7402/5-FU cells assessed as ratio of phosphorylated AKT to beta-actin level at 10 uM after 48 hrs by Western blot analysis (reference value: 0.39); format: cell-based
Sequence of RAC-alpha serine/threonine-protein kinase (Homo sapiens) (P31749 whole entry): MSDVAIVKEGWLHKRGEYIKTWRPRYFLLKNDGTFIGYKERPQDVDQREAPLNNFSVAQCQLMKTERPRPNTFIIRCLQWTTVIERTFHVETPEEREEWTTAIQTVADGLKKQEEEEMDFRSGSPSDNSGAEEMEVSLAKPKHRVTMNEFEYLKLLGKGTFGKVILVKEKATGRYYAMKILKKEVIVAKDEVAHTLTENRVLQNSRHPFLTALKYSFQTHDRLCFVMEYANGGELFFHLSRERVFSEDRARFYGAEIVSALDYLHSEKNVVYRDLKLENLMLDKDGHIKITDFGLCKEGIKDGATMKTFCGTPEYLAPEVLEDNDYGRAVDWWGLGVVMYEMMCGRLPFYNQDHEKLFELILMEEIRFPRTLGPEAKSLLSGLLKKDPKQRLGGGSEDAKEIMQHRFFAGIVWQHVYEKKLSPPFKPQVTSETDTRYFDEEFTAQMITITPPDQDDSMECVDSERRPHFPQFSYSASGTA

COc1cc([C@@H]2c3cc4c(cc3[C@H](OC(=O)C(C)c3ccc(CC(C)C)cc3)[C@H]3COC(=O)[C@H]23)OCO4)cc(OC)c1OC (some centres not stated)
IC50 (Bel-7402): 18.9 µM
IC50 (Bel7402/5-FU [1]): 10.3 µM
IC50 (L02): 7.38 µM
Ratio IC50 [2]: 0.54
Activity (Bel7402/5-FU [3]): 8.88%
Activity (Bel7402/5-FU [4]): 27.34%
Activity (Bel7402/5-FU [5]): 63.78%
Activity (Bel7402/5-FU [6]): Active
Activity (Bel7402/5-FU [7]): Active
Activity (Bel7402/5-FU [8]): Active
Activity (Bel7402/5-FU [9]): Active
Activity (Bel7402/5-FU [10]): 62.05%
Activity (Bel7402/5-FU [11]): 7.12%
Activity (Bel7402/5-FU [12]): 21.24%
Activity (Bel7402/5-FU [13]): 9.59%
Activity (Bel7402/5-FU [14]): Active
Activity (Bel7402/5-FU [15]): Active
Activity (Bel7402/5-FU [16]): Active
Ratio (Bel7402/5-FU [17]): 0.29
Ratio (Bel7402/5-FU [18]): 0.38
Ratio (Bel7402/5-FU [19]): 0.36
Ratio (Bel7402/5-FU [20]): 0.52
Ratio (Bel7402/5-FU [21]): 0.33
Ratio (Bel7402/5-FU [22]): 0.25
Ratio (Bel7402/5-FU [23]): 0.25
Ratio (Bel7402/5-FU [24]): 0.35
Ratio (Bel7402/5-FU [25]): 0.18
Ratio (Bel7402/5-FU [26]): 0.21
Ratio (Bel7402/5-FU [27]): 0.29
Ratio (Bel7402/5-FU [28]): 0.46
Ratio (Bel7402/5-FU [29]): 0.43
Ratio (Bel7402/5-FU [30]): 0.23
Ratio (Bel7402/5-FU [31]): 0.61
Ratio (Bel7402/5-FU [32]): 0.7
Ratio [33]: 0.55
Ratio [34]: 0.4
Ratio [35]: 0.42
